Laboratory results: patent US20220002411A1, “METHODS FOR TREATING IMMUNE RELATED OCULAR DISORDERS” (LEGEND MEDICAL-RIMONCI VISION TECHNOLOGY INCUBATION LIMITED, priority 2019, published 2022)

Tested on: glaucoma mice (high intraocular pressure, C57BL/6J)
Assay: Glaucoma mouse model induced by intraocular injection of polystyrene microparticles (RGC and axon damage)
Format: in vivo, C57BL/6J mice
Conditions: 2 μl once a week at 0.2 μg/ml intravitreal; observed after 8 weeks; compared to IgG injected mice / controls
Procedure: Glaucoma mouse model. Two glaucoma mice models were used in the following experiments. In the first model, high intraocular pressure was induced in adult C57BL/6J mice by injecting polystyrene microparticles. First, mice were anesthetized by intraperitoneal injection of a mixture of ketamine (120 mg/kg) and xylazine (12 mg/kg). Then, a small puncture in the center of the right cornea of the mouse was incised with a 30 G needle (BD, USA). Then, 3 to […] of polystyrene particles of 15 μm diameter (Invitrogen, Oregon, USA) were injected at a 5×10^6/ml concentration into the right anterior chamber of the eye by a glass micro-injector. Left eyes were used as controls, by injecting […] of PBS into the left anterior chamber in a similar manner
Treatment with immune checkpoint inhibitors. […]
Pathologic assessments. After mice were sacrificed, optic nerve and retinal patches were taken to assess optic nerve damage. The optic nerve was fixed overnight with Karnovsky solution. Transverse sections of the optic nerve were obtained 2 mm after the eyeball and observed by electron microscopy (EM410, Philips). For retinal patches the eyeball was fixed with 4% paraformaldehyde overnight. Retinal patches and frozen sections were taken. Retinal ganglion cells (RGCs) were labeled with beta 3 tubulin (Invitrogen) and recorded using a confocal laser microscope (Olympus FV1000). […]

Nc1ncnc2c1ncn2[C@@H]1O[C@H](CO)[C@@H](O)[C@H]1O [adenosine]
RGCs loss (beta 3 tubulin staining): decreased RGCs loss
